The assay has as its target T1, Cdc7 (BEV coexpressed huCDC7/DBF4) (Homo sapiens, UniProt O00311).
T1 construct: made in house; host or cells: BEV (baculovirus expression vector) co-expression; insect cells are implied but no cell line is named
As to the kind of experiment: Cdc7 enzyme inhibition assay ([33P]ATP, biotinylated peptide substrate, FlashPlate). It is filed as biochemical. The conditions noted are these: Table 3; enzyme inhibition data (Ki). On the procedure: Cdc7 (BEV coexpressed huCDC7/DBF4) is prepared internally. Cdc7 assays are conducted as follows with final concentrations as listed. […] Reactions are quenched after 1 hr by the addition of 90 μL stop buffer (50 mM EDTA, 2M NaCl). […] (Ki) for exemplary compounds.

The term Ki denotes a measure of affinity in units of concentration, obtained from inhibition or displacement. Low values mean higher affinity, high ones lower affinity.

T1 sequence (O00311 whole entry): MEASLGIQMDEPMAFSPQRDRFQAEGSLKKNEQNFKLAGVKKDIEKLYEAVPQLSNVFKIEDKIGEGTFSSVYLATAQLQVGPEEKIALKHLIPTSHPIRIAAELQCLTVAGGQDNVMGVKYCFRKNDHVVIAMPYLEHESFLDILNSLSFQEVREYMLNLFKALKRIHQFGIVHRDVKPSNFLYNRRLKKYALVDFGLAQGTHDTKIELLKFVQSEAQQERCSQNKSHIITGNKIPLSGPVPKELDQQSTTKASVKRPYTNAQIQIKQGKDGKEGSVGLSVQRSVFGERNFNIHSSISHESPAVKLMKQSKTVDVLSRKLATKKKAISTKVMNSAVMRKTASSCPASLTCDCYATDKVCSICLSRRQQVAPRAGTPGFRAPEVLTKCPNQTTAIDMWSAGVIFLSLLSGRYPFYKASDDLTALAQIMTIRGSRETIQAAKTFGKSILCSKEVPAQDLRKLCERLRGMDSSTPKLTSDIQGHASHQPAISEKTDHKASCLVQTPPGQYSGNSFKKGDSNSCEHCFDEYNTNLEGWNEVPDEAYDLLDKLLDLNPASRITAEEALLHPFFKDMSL
T1 sequence (Q9UBU7 whole entry partner): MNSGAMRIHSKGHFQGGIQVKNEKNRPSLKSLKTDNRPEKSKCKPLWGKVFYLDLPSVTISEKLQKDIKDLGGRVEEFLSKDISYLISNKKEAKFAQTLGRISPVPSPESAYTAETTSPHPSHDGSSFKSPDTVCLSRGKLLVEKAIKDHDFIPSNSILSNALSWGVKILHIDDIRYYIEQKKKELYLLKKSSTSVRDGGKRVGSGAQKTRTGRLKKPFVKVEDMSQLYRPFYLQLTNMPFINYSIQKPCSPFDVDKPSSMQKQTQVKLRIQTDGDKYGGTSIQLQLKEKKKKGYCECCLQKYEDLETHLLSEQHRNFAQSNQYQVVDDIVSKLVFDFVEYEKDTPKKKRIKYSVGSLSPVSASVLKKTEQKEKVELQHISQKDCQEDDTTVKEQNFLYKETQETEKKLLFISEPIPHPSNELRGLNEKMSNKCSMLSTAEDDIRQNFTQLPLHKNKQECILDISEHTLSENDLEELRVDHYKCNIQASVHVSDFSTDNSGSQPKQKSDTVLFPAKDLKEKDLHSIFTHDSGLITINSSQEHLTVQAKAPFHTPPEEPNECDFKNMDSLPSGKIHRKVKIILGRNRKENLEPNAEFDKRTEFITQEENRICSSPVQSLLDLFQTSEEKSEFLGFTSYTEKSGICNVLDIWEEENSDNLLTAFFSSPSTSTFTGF

In the case of `O=C(N[C@H]1CC[C@H](Nc2cc(-c3c[nH]c4ncccc34)cc(Cl)n2)CC1)c1cccc(C(F)(F)F)c1` [Example 383, N-(trans-4-{[6-chloro-4-(1H-pyrrolo[2,3-b]pyridin-3-yl)pyridin-2-yl]amino}cyclohexyl)-3-(trifluoromethyl)benzamide], the Ki is less than 10 nM.
Regarding `Clc1cnc2[nH]cc(-c3cc(Cl)nc(NC4CCCCC4)c3)c2c1` [Example 384, 6-chloro-4-(5-chloro-1H-pyrrolo[2,3-b]pyridin-3-yl)-N-cyclohexylpyridin-2-amine], the Ki lay in the range of 10 to 100 nM.
Under `O=C(N[C@H]1CC[C@H](Nc2cc(-c3c[nH]c4ncccc34)cc(Cl)n2)CC1)c1cccc(Cl)c1` [Example 385, 3-chloro-N-(trans-4-{[6-chloro-4-(1H-pyrrolo[2,3-b]pyridin-3-yl)pyridin-2-yl]amino}cyclohexyl)benzamide] stands less than 10 nM.
The result for `COc1ccc(CNc2cc(-c3c[nH]c4ncccc34)cc(Cl)n2)cc1OC` [Example 386] reads 10 to 100 nM; that for `Clc1cc(-c2c[nH]c3ncccc23)cc(NCCc2ccccn2)n1` [Example 387, 6-chloro-N-[2-(pyridin-2-yl)ethyl]-4-(1H-pyrrolo[2,3-b]pyridin-3-yl)pyridin-2-amine], less than 10 nM; that for `Clc1cc(-c2c[nH]c3ncccc23)cc(NCCc2ccccc2)n1` [Example 388, 6-chloro-N-(2-phenylethyl)-4-(1H-pyrrolo[2,3-b]pyridin-3-yl)pyridin-2-amine], less than 10 nM.
The molecule `CN1CCN(CCCNc2cc(-c3c[nH]c4ncccc34)cc(Cl)n2)CC1` [Example 389, 6-chloro-N-[3-(4-methylpiperazin-1-yl)propyl]-4-(1H-pyrrolo[2,3-b]pyridin-3-yl)pyridin-2-amine] returned an inhibition constant Ki of 10 to 100 nM.
Consider `Clc1cc(-c2c[nH]c3ncccc23)cc(NCCOc2ccccc2)n1` [Example 390, 6-chloro-N-(2-phenoxyethyl)-4-(1H-pyrrolo[2,3-b]pyridin-3-yl)pyridin-2-amine], for which the Ki was less than 10 nM.
As to `CN(C)CCCNc1cc(-c2c[nH]c3ncccc23)cc(Cl)n1` [Example 391, N′-[6-chloro-4-(1H-pyrrolo[2,3-b]pyridin-3-yl)pyridin-2-yl]-N,N-dimethylpropane-1,3-diamine], the inhibitory constant (Ki) was less than 10 nM.
Under `Clc1cc(-c2c[nH]c3ncccc23)cc(NC2CCN(Cc3ccccc3)C2)n1` (centres unmarked) [Example 392, N-(1-benzylpyrrolidin-3-yl)-6-chloro-4-(1H-pyrrolo[2,3-b]pyridin-3-yl)pyridin-2-amine] stands less than 10 nM; under `O=C(NCCS(=O)(=O)N[C@H]1CC[C@H](Nc2cc(-c3c[nH]c4ncccc34)cc(Cl)n2)CC1)c1ccc(F)cc1F` [Example 393, N-{2-[(trans-4-{[6-chloro-4-(1H-pyrrolo[2,3-b]pyridin-3-yl)pyridin-2-yl]amino}cyclohexyl)sulfamoyl]ethyl}-2,4-difluorobenzamide], less than 10 nM.
Under `O=C(N[C@H]1CC[C@H](Nc2cc(-c3c[nH]c4ncccc34)cc(Cl)n2)CC1)C1CN(Cc2cccc(C(F)(F)F)c2)C1` [Example 394, N-(trans-4-{[6-chloro-4-(1H-pyrrolo[2,3-b]pyridin-3-yl)pyridin-2-yl]amino}cyclohexyl)-1-[3-(trifluoromethyl)benzyl]azetidine-3-carboxamide] stands less than 10 nM.
`O=C(N[C@H]1CC[C@H](Nc2cc(-c3c[nH]c4ncccc34)cc(Cl)n2)CC1)C1CN(Cc2ccc(Cl)cc2Cl)C1` [Example 395, N-(trans-4-{[6-chloro-4-(1H-pyrrolo[2,3-b]pyridin-3-yl)pyridin-2-yl]amino}cyclohexyl)-1-(2,4-dichlorobenzyl)azetidine-3-carboxamide] displayed an inhibition constant Ki of less than 10 nM.
The result for `COc1ccc(CNc2cc(-c3c[nH]c4ncccc34)cc(Cl)n2)cc1` [Example 397, 6-chloro-N-(4-methoxybenzyl)-4-(1H-pyrrolo[2,3-b]pyridin-3-yl)pyridin-2-amine] reads less than 10 nM.
